Measurements reported in paper PMC3265452 (PLoS Neglected Tropical Diseases, 2012).
Where a name gives a salt, the structure may show the parent alone. Read-outs that look alike come from different tables or passages of the source.

Target: AaDOP2 (Aedes aegypti, UniProt H6D5H2)
Assay: AaDOP2 antagonist screen of the LOPAC1280 library (HEK-CRELuc-Aadop2 cells, luminescence)
Assay type: cell-based
[1] = 10 µM compound, 300 nM dopamine, 2 hr, hit = compound effect <20

Sequence of AaDOP2 (H6D5H2 1-476): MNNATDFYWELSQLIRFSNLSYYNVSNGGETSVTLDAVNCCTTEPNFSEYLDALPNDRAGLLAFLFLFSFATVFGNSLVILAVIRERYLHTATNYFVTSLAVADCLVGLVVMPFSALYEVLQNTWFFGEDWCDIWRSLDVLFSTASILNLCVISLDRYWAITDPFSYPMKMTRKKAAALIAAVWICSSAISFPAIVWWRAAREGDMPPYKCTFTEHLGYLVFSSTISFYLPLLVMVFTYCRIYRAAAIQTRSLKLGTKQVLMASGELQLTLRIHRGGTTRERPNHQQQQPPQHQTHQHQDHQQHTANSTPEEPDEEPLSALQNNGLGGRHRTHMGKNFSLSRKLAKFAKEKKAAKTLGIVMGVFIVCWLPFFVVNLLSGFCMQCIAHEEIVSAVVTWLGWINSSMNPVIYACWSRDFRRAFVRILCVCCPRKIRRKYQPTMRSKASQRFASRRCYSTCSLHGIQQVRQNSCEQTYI

Row | Molecule | Compound effect (percent receptor signaling in presence of test compound, relative lux units relative to the SCH23390 control) | Compound effect (percent receptor signaling in presence of test compound, relative lux units relative to the SCH23390 control) [1]
1 | CC[C@]1(O)C[C@@H]2CN(CCc3c([nH]c4ccccc34)[C@@](C(=O)OC)(c3cc4c(cc3OC)N(C)[C@H]3[C@@](O)(C(=O)OC)[C@H](OC(C)=O)[C@]5(CC)C=CCN6CC[C@]43[C@@H]65)C2)C1.O=S(=O)(O)O [Compound 1251, Vinblastine sulfate salt] | 118 | 
2 | COc1ccccc1NC(=O)Nc1nc(-c2cccnc2)nc2ccccc12 [Compound 1253, VUF 5574] | 111 | 
3 | CCOC(=O)C1=C[C@]2(CC)CCCN3CCc4c(n1c1ccccc41)[C@@H]32 [Compound 1254, Vinpocetine] | 148 | 
4 | CC[C@]1(O)C[C@H]2CN(CCc3c([nH]c4ccccc34)[C@@](C(=O)OC)(c3cc4c(cc3OC)N(C=O)[C@H]3[C@@](O)(C(=O)OC)[C@H](OC(C)=O)[C@]5(CC)C=CCN6CC[C@]43[C@@H]65)C2)C1 [Compound 1257, Vincristine sulfate] | 98 | 
5 | COc1cc2ncnc(Nc3ccc(O)cc3)c2cc1OC [Compound 1260, WHI-P131] | 90 | 
6 | COC[C@H]1OC(=O)c2coc3c2[C@@]1(C)C1=C(C3=O)[C@@H]2CCC(=O)[C@@]2(C)C[C@H]1OC(C)=O [Compound 1261, Wortmannin from Penicillium funiculosum] | 42 | 
7 | CC(N)=NCc1cccc(CN)c1.Cl.Cl [Compound 1262, 1400W dihydrochloride] | 96 | 
8 | CS(=O)(=O)O.Cc1c(C(=O)c2cccc3ccccc23)c2cccc3c2n1[C@H](CN1CCOCC1)CO3 [Compound 1264, (R)-(+)-WIN 55,212-2 mesylate] | 58 | 
9 | C#C[C@]1(O)CC[C@H]2[C@@H]3CCC4=Cc5nc6nc7ccccc7n6cc5C[C@]4(C)[C@H]3CC[C@@]21C [Compound 1265, WIN 62,577] | 59 | 
10 | N[C@@H](Cn1ccc(=O)[nH]c1=O)C(=O)O [Compound 1266, S(-)-Willardiine] |  | 99%
11 | COc1ccccc1N1CCN(CCN(C(=O)C2CCCCC2)c2ccccn2)CC1.O=C(O)/C=C\C(=O)O [Compound 1267, WAY-100635 maleate] |  | 101%
12 | N[C@@H](Cn1cc(I)c(=O)[nH]c1=O)C(=O)O [Compound 1268, S-5-Iodowillardiine] |  | 130%
13 | Cc1cccc(C)c1N=C1NCCCS1 [Compound 1269, Xylazine hydrochloride] | 134 | 
14 | O=C(NCCNCC(O)COc1ccc(O)cc1)N1CCOCC1 (stereo not shown) [Compound 1270, Xamoterol hemifumarate] | 112 | 
15 | Cc1cc(C(C)(C)C)cc(C)c1CC1=NCCN1 [Compound 1271, Xylometazoline hydrochloride] | 85 | 
16 | CCCn1c(=O)c2[nH]c(-c3ccc(OCC(=O)NCCN)cc3)nc2n(CCC)c1=O [Compound 1272, Xanthine amine congener] | 90 | 
17 | COC(=O)[C@@H]1[C@H]2C[C@H]3c4[nH]c5ccccc5c4CCN3C[C@@H]2CC[C@@H]1O [Compound 1273, Yohimbine hydrochloride] | 85 | 
18 | COc1ccc(CCN(C)CCc2ccc(OC)c(OC)c2)cc1OC.Cl [Compound 1274, YS-035 hydrochloride] |  | 93%
19 | OCc1ccc(-c2nn(Cc3ccccc3)c3ccccc23)o1 [Compound 1275, YC-1] | 136 | 
20 | CCCOc1ccccc1-c1nc2nn[nH]c2c(=O)[nH]1 [Compound 1276, Zaprinast] | 115 | 
21 | NS(=O)(=O)Cc1noc2ccccc12 [Compound 1277, Zonisamide sodium] | 130 | 

Row | Molecule | Compound effect (percent receptor signaling in presence of test compound, relative lux units relative to the SCH23390 control) | Compound effect (percent receptor signaling in presence of test compound, relative lux units relative to the SCH23390 control) [1]
22 | COc1cc(-c2ccc(=O)[nH]n2)ccc1OC(F)F [Compound 1278, Zardaverine] | 125 | 
23 | CN1CCN(C(=O)OC2c3nccnc3C(=O)N2c2ccc(Cl)cn2)CC1 (stereo not shown) [Compound 1279, Zopiclone] | 99 | 
24 | CN(C)C/C=C(/c1ccc(Br)cc1)c1cccnc1 [Compound 1280, Zimelidine dihydrochloride] | 80 | 
25 | (+)-Catechin Hydrate [Compound 230] |  | 111%
26 | (-)-Bicuculline methbromide, 1(S), 9(R) [Compound 202] | 94 | 
27 | (-)-Eseroline fumarate [Compound 504] | 56 | 
28 | (-)-Perillic acid [Compound 965] |  | 87%
29 | (-)-Scopolamine methyl nitrate [Compound 1087] | 113 | 
30 | (±)-PD 128,907 hydrochloride [Compound 1024] |  | 95%
31 | (±)-Pindobind [Compound 1010] |  | 65%
32 | Adenosine 3',5'-cyclic monophosphate [Compound 105] | 100 | 
33 | Ceramide [Compound 235] |  | 87%
34 | Cortexolone maleate [Compound 1081] |  | 83%
35 | Dequalinium analog, C-14 linker [Compound 368] |  | 39%
36 | Histamine, R(-)-alpha-methyl-, dihydrochloride [Compound 622] | 127 | 
37 | IMID-4F hydrochloride [Compound 639] |  | 109%
38 | L-Leucinethiol, oxidized dihydrochloride [Compound 709] |  | 81%
39 | MDL 26,630 trihydrochloride [Compound 828] |  | 93%
40 | MHPG piperazine [Compound 577] | 104 | 
41 | NCS-356 [Compound 849] | 99 | 
42 | NS 521 oxalate [Compound 869] | 75 | 

Row | Molecule | Compound effect (percent receptor signaling in presence of test compound, relative lux units relative to the SCH23390 control) | Compound effect (percent receptor signaling in presence of test compound, relative lux units relative to the SCH23390 control) [1]
43 | OXA-22 iodide [Compound 326] | 88 | 
44 | Oligomycin A [Compound 906] | 82 | 
45 | Phenylbenzene-omega-phosphono-alpha-amino acid [Compound 1021] | 95 | 
46 | Picrotoxin [Compound 924] | 98 | 
47 | Pyrazinecarboxamide [Compound 966] |  | 79%
48 | R(-)-2,10,11-Trihydroxy-N-propylnoraporphine hydrobromide [Compound 438] |  | 88%
49 | R(-)-Apocodeine hydrochloride [Compound 435] | 98 | 
50 | R(-)-Isoproterenol (+)-bitartrate [Compound 640] |  | 118%
51 | R(-)-Me5 [Compound 734] | 93 | 
52 | R(-)-Propylnorapomorphine hydrochloride [Compound 436] | 99 | 
53 | R-(-)-Deprenyl hydrochloride [Compound 813] | 93 | 
54 | R-(-)-Desmethyldeprenyl hydrochloride [Compound 407] | 90 | 
55 | S(-)-Timolol maleate [Compound 1191] | 88 | 
56 | S-Nitroso-N-acetylpenicillamine [Compound 846] |  | 88%
57 | SB 224289 hydrochloride [Compound 1142] | 95 | 
58 | SKF 83565 hydrobromide [Compound 1096] |  | 57%
59 | SKF 95282 dimaleate [Compound 1237] | 96 | 
60 | Seglitide [Compound 1079, reference compound] | 102 | 
61 | TFPI hydrochloride [Compound 1197] |  | 96%
